Measured values as given in PubChem BioAssay (NCI).
“And” between values parts separate entries of the source, which are not always exact repeats. Identical values can stand only once.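 Cultured in 96-well plates, cells were exposed to test compound for 48 hours across five concentrations. GI50 marks 50% less growth. TGI is the concentration that stops growth completely.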

How the values were obtained:
Assay in all cases: growth of human tumour cells (NCI), 48 h
OVCAR-3 ovarian = system: OVCAR-3 ovarian
UO-31 renal = system: UO-31 renal
CCRF-CEM leukemia = system: CCRF-CEM leukemia
SW-620 colon = system: SW-620 colon
OVCAR-8 ovarian = system: OVCAR-8 ovarian
SF-539 CNS = system: SF-539 CNS
A498 renal = system: A498 renal
NCI-H522 lung = system: NCI-H522 lung
CAKI-1 renal = system: CAKI-1 renal
NCI-H226 lung = system: NCI-H226 lung

Structure (SMILES)	TGI (OVCAR-3 ovarian) [µM]	TGI (UO-31 renal)	TGI (CCRF-CEM leukemia)	TGI (SW-620 colon) [µM]	TGI (OVCAR-8 ovarian) [µM]	TGI (SF-539 CNS)	TGI (A498 renal) [µM]	TGI (NCI-H522 lung)	GI50 (CCRF-CEM leukemia) [µM]	TGI (CAKI-1 renal)	TGI (NCI-H226 lung) [µM]	GI50 (OVCAR-3 ovarian) [µM]	GI50 (UO-31 renal) [µM]	GI50 (SW-620 colon) [µM]	GI50 (OVCAR-8 ovarian) [µM]	GI50 (SF-539 CNS) [µM]	GI50 (A498 renal)	GI50 (NCI-H522 lung) [µM]	GI50 (NCI-H226 lung) [µM]	GI50 (CAKI-1 renal) [µM]
CCCC(=O)[O-].N.N.N.N.N.[Co+3].[O-][Cl+3]([O-])([O-])[O-]	> 100	> 100 µM	> 100 µM	> 100	> 100	> 100 µM	> 100	> 100 µM												
COC1OC2=CCC3C(=O)NC(=O)C3C2[C@H](OCc2ccccc2)C1OCc1ccccc1 (stereo partly specified)	3.1	32.2 µM		2.95	3.07	31 µM		3.18 µM												
O=C(N/N=C/c1cc(Br)cc(Br)c1[O-])c1ccccc1O.O=C(N/N=C/c1cc(Br)cc(Br)c1[O-])c1ccccc1O.[Ni+2]	0.52	8.5 µM	> 100 µM	1.94	1.34	0.72 µM		0.727 µM	0.537	1.53 µM	1.56									
CCOC(=O)N1CCC(=C2c3ccc(Cl)cc3CCc3cccnc32)CC1	22.5	4.49 µM	> 100 µM	34.6	32.5		8.12				40.6									
CN(C)/N=N/c1nc[nH]c1C(N)=O	> 1000	96.9 µM and > 793 µM	90.1 µM and > 731 µM	> 1000	> 1000	99.3 µM and > 875 µM	> 875	89.3 µM and > 779 µM		71.7 µM and 539 µM		101	24.5	32.9	35.9	47.5	72.4 µM and > 133 µM	82	140	
O=c1ccc2nc(-c3ccccn3)nn(-c3ccccc3)c-2c1	3.17	2.82 µM		3.66	> 100	19.8 µM	27.2	3.09 µM		2.84 µM	11.9	1.77	1.46	1.77	3.1	6.93	14.1 µM	1.49	3.2	1.49
O=C(O)C(=O)/C=C(\O)c1ccc(Br)cc1	> 100	> 100 µM	> 100 µM	> 100	> 100		> 100	> 100 µM		> 100 µM	> 100									
COc1ccc2nc3cc(Cl)ccc3c(NCCNc3c4ccc(Cl)cc4nc4ccc(OC)cc34)c2c1			6.68 µM	2.98			3.36	3.23 µM	2.19	3.18 µM				1.1			1.8 µM	1.72		1.72
O=c1ccc2ccc(O)cc2o1	> 100	> 100 µM	> 100 µM	> 100	> 100	> 100 µM	> 100	> 100 µM		> 100 µM	> 100									
NCCCNCCCCN1CC1	4.78	> 100 µM				3.4 µM	2.14	11.4 µM		0.407 µM	> 20.9									
C=C1C(=O)OC2CC3(C)OC3CC/C(C)=C/C(OC(C)=O)C12 (stereo unspecified)	34.7	26.5 µM	12.7 µM	4.89	13.6	16.8 µM	29.9	2.64 µM		6.24 µM	26.8									
COc1ccc(Sc2ccccc2N)cc1	> 100	92.9 µM	83.8 µM	> 100	> 100	> 100 µM	> 100				89.4									
Cc1ccc(CCC(=O)C(=O)O)s1	> 100	> 100 µM	> 100 µM	> 100	> 100	> 100 µM	> 100	> 100 µM		90.3 µM										
Cc1nc2ccccc2c(/C=C/c2ccc(Cl)cc2)c1C(=O)/C=C/c1ccccc1	2.77	2.4 µM	> 100 µM			3.11 µM			1.32		3.22	1.36	1.18			1.7			1.58	
COC(=O)C(NC(=O)c1ccccc1)C(c1ccc(Cl)cc1)P(=O)(OC)OC (stereo unspecified)		> 100 µM	> 100 µM	> 100	> 100	> 100 µM	> 100	> 100 µM		> 100 µM	> 100									
CCOc1ccc2c(c1)c(=O)c1c(NCCN(CC)CC)ccc3nnn2c31	> 100		25.7 µM	31.5	65.8	24.1 µM	> 100	27.8 µM		41.6 µM	> 100									
CCCCNC(=O)/N=C/c1c(O)c2ccccc2oc1=O		56.3 µM		> 100	> 100	> 100 µM					> 100									
COc1ccc(N2NC(c3ccccc3)(c3ccccc3)C(C)C2=O)cc1 (stereo unspecified)	> 100	> 100 µM	> 100 µM	> 100	> 100	> 100 µM	> 100	> 100 µM		> 100 µM	> 100									
CC(C)(C)CC(C)(C)c1ccc(O)c(C[N+](C)(C)[O-])c1	> 100	> 100 µM	> 100 µM	> 100	> 100	> 100 µM	> 100	> 100 µM		> 100 µM	> 100									
Cc1ccc(NC(=O)CSC(N)=O)cc1C	> 100	> 100 µM	> 100 µM	> 100	> 100	> 100 µM	> 100	> 100 µM		> 100 µM	> 100									
COc1ccc(C[C@H](N)C(=O)N2C[C@@H](CO)C[C@@H](n3ccc(=O)[nH]c3=O)C2)cc1	> 100	> 100 µM	> 100 µM	> 100	> 100	> 100 µM		> 100 µM		> 100 µM	> 100									
COc1ccc(-c2nn(-c3ccc(NC(=O)Nc4ccc(Cl)c(C(F)(F)F)c4)cc3)cc2-c2ccncc2)cc1Cl	6.14	3.05 µM	6.65 µM	4.4	20.7	4 µM	5.18	3.95 µM	1.4	5.18 µM	8.78	1.67	1.1	1.93	2.02	1.53	1.62 µM	1.27	2.59	1.78
